Measurements from patent publication US8106092B2, “Treatment of solid cancers” (priority 2004, dated 2012).

Assays:
B16 tumors = assay: Example 2: sub-optimal topical PEP005 combined with M720/B16 vaccination and DC+IL-2, cure of primary B16 tumors; type: in vivo, C57BL/6 mice
From the text: To determine whether PEP005 (ingenol-3-angelate) treatment could synergize with (i) vaccine-induced anti-cancer CD4^+ T-cells/antibodies and/or (ii) DC vaccine-induced anti-cancer CD8^+ T-cells, topical PEP005 treatment was combined with vaccination using (i) B16 lysate emulsified in Montanide ISA 720 adjuvant (M720/B16) and (ii) DC2.4 cells sensitized with TRP-2 peptide, SVYDFFVWL [SEQ ID NO:1] (a dominant CD8^+ T-cell epitope for anti-B16 CM^+ T-cells) and activated with LPS (Camporeale et al, Can Res 63:3688, 2003) (DC). The latter group also received IL-2 to maintain the vaccine induced T-cells. The topical PEP005 dose (10 μg/mouse) was known not to be sufficient to cure most B16 tumors of reasonable size. Thus, this experiment sought to determine whether improvements in B16 cure rate could be achieved when sub-optimal topical PEP005 treatment was combined with other immune-based therapies.
B16 tumors were injected 2×10^4 s.c. in groups (n=5 per group) of C57BL/6 mice and after 12 days (d0) had reached 8-12 mm^2 in size. The groups of animal received the following treatments:
PEP005: On d0, the tumors in this group were treated topically with PEP005, 10 μg/mouse in 10 μl isopropanol gel.
PEP005+M720: On d−5 (day minus 5), the animals had received Montanide ISA 720 adjuvant (M720) emulsified 7:3 v:v (Elliott et al, Vaccine. 17(15-16):2009-2019, 1999) with water (volume 100 μl/mouse s.c.) and on d0, the tumors in this group were treated topically with PEP005.
PEP005+M720/B16: On d−5, the animals had received Montanide ISA 720 adjuvant (M720) emulsified 7:3 v:v (Elliott et al, 1999 supra) with B16 cell lysate (3×10^5 B16 cells per mouse s.c., volume 100 μl/mouse) and on d0, the tumors in this group were treated topically with PEP005. A modality was known to induce CD4^+ T-cells specific for B16.
PEP005+M720/B16+DC+IL-2: On d0, the tumors in this group were treated topically with PEP005 and had been given M720/B16 as for Group 4. The group also received on d0 DC in the form of a DC cell line, DC2.4. These cells were (i) sensitized with TRP-2 peptide, SVYDFFVWL [SEQ ID NO:1] […]

B16-OVA tumors = assay: PEP005-mediated cure of primaries plus DC therapy, growth of secondary tumors, s.c. B16-OVA model; type: in vivo, C57BL/6 mice; conditions: Log rank p<0.001 (PEP005) and =0.002 (DC)
Protocol: FIGS. 13A to C are graphical representations showing synergistic effects between PEP005-mediated cure of primaries and DC therapy on the growth of secondary tumors and on CD8^+ T-cell induction. (A) On d−3 C57BL/6 mice where inoculated with 2×10^6 B16-OVA cells on the right flank (primary tumor) and 2×10^4 B16-OVA cells on the left flank (secondary tumor). On d0 and d1 the primary B16-OVA tumors, which has reach 30.4 mm^2+SD6 were cured with i.t. injections of 25 μg of PEP005 formulated in PEG400. On d4 and d11 mice received DC therapy using DC2.4 cells pulsed with SVYDFFVWL [SEQ ID NO:1], KVPRNQDWL [SEQ ID NO:4] and SIINFEKL [SEQ ID NO:2] peptides, and ovalbumin (n=12, PEP005+DC). […] Animal groups were established and treated as in (A) except that on d12 mice were sacrificed and splenocytes analyzed in an ex vivo ELISPOT assay for responses to SVYDFFVWL [SEQ ID NO:1], KVPRNQDWL [SEQ ID NO:4] and SIINFEKL [SEQ ID NO:2] […]
To determine whether the immunostimulatory activity of PEP005-mediated cure of primary tumors would synergize with DC therapy to reduce growth of secondaries, four groups of C57BL/6 mice were established using the s.c. B16-OVA model. […] The growth of secondary tumors was monitored over time.

For `C/C=C(/C)C(=O)O[C@H]1C(C)=C[C@]23C(=O)[C@@H](C=C(CO)[C@@H](O)[C@]12O)[C@H]1[C@@H](C[C@H]3C)C1(C)C` [PEP005, ingenol-3-angelate], the “regression of treated tumors” value (B16 tumors; all PEP005 treated tumors) was “regressed by treatment to below detectable size”, the “day on which tumor became visible again / emerged” value (B16 tumors; day (d) after treatment on d0, growth curves FIG. 7) was 4-5 and the “treated tumors re-emerging (failure rate)” value (B16 tumors; topical 10 μg PEP005, combined PEP005/PEP005+M720 group n=10, tumors 8-12 mm^2) was 90%. For the same molecule, the “growth of secondaries vs no treatment controls” value (B16-OVA tumors) was “significantly reduced the growth of secondaries”.
